According to patent publication US6372726B1, “Methods of cancer treatment using NAALADase inhibitors” (Guilford Pharmaceuticals Inc., priority 1996, dated 2002):
Like-named read-outs stand apart in the source and are kept apart here.

Assays:
NAALADase = NAALADase (UniProt P70627); test: In vitro assay of NAALADase activity ([3H]Glu liberated from [3H]NAAG, synaptosomal protein); assay type: biochemical; conditions: for NAALADase inhibiting activity (in words): comparison of Table III(a) compounds
Procedure: The following compounds were tested for in vitro inhibition of NAALADase activity.
Substrate and product were resolved by anion-exchange liquid chromatography. […] Quisqualate (100 μM) was included in parallel assay tubes to confirm the specificity of the measurements.

mice = test: In vivo toxicity of NAALADase inhibitors in mice; conditions: doses of 1 to 500 mg/kg, observed 5 consecutive days
Excerpt: The mice were subsequently observed two times per day for 5 consecutive days.

[1] = system: LNCAP human prostate tumors; test: In vivo LNCaP tumor xenograft assay; set-up: species or system mice; conditions: daily intratumoral injection (0.25 μg/day), six weeks, p=0.04
Procedure: Referring now to FIGS. 3 and 4, LNCaP human prostate cancer cells were injected subcutaneously into the right flank of male nude mice. […] The 2-(phosphonomethyl)pentanedioic acid polymer was changed two times per week. Tumor volumes were monitored for 42 days after the beginning of treatment.
LNCaP is a human prostate cancer cell line that was established in 1973 from a […] of a patient who had been treated with 5-FU, doxorubicin, methotrexate, and CTX in the 3 months before the cell line was initiated. This line is androgen receptor positive and has been used in screening anticancer drugs that are targeted as hormone antagonists. […]
(§1) After the animals were released from quarantine, the mice were injected subcutaneously in the right flank with 1×10^7 LNCaP cells in Matrigel™ (0.1-ml injection volume) Tumor dimensions and body weight were measured twice weekly. Vernier calipers were used to measure tumors in three planes, and tumor volume (V) was calculated as follows: V=π(x×y×z)/6, where x, y, and z were the tumor measurements minus skin thickness. […]
The tumor were measured twice weekly for at least 8 weeks after the first treatment. The mean tumor volume for each group was calculated for each time point. Comparisons between groups at specific times were made using an unpaired, two-tailed t-test, and the results were analyzed using analysis of variance (ANOVA). […]

[2] = system: R3327 rat prostate tumors (Dunning R3327-G prostate cancer cells); test: In vivo rat Dunning R3327 model
Procedure: Referring now to FIGS. 5 and 6, Dunning R3327-G prostate cancer cells were injected subcutaneously into both flanks of syngeneic male rats. […] In the second study, the anti-tumor growth activity of 2-[[phenylmethyl)hydroxyphosphinyl]methyl]pentanedioic acid was tested following daily intra-tumoral injections of the drug (0.1,1,10,100 μg) after the tumor reached an initial volume of 80-290 mm^3. Tumor volumes were subsequently monitored for 42 days after the beginning of drug treatment.
R3327-G is a cell line derived from an androgen-sensitive papillary adenocarcinoma derived from a spontaneously forming tumor in the rat prostate. […]
as §1, with “rats” for “mice”, “both flanks” for “the right flank”, “R3327-G” for “LNCaP”, “cells” for “cells in Matrigel™”, “volume).” for “volume)”
The tumors were measured twice weekly. The mean tumor volume for each group was calculated for each time point. Comparisons between groups at specific times were made using an unpaired, two-tailed t-test, and the results were analyzed using analyzed of variance (ANOVA). […]

[3] = system: LNCAP cells (a prostate cancer cell line); test: In vitro cancer assay: 3H-thymidine incorporation in LNCAP cells; assay type: cell-based, human; conditions: for 3H-Thymidine Incorporation (dpm/well): LNCAP cells, 7 days
Procedure: On the 7th day, the cells are pulsed with 3H-thymidine for 4 hours, harvested and measured for radioactivity. Values represent means +/−SEM of 6 separate cell wells for each treatment. All experiments are performed at least twice.
Cells are grown in RPMI-1640 media supplemented with 10% heat-inactivated fetal calf serum, 2 mM-glutamine, 100 units/ml penicillin, and 100 μg/ml streptomycin (Paragon) in a humidified incubator at 37° C. in a 5% CO2/95% O2 atmosphere.
The cells are suspended at 1×10^3 cells/ml in RPMI-1640 media and seeded into 24-well plates at 500 μl per well. […] On days 3, 5 and 7, media and drug are refreshed. On the 8th day following seeding, each well is pulsed with 1 μCi ^3H-thymidine (New England Nuclear) for 4 hours. Media is then removed and the wells washed 2 times with phosphate buffered saline (pH=7.4). […] 5 ml UltimaGold (Packard) scintillation cocktail is added and radioactivity is quantitated using a Beckman LS6001 scintillation counter.

[4] = Table III(c), read-out: Ki Value

O=C(O)CCC(CP(=O)(O)Cc1c(F)c(F)c(F)c(F)c1F)C(=O)O (stereo not shown)
Ki (NAALADase; [4]): 38 nM

O=C(O)CCC(CP(=O)(O)O)C(=O)O (stereo not shown) [2-(phosphonomethyl)pentanedioic acid]
Toxicological effect in mice (in words) (mice): non-toxic
Mean tumor volume versus control group, FIG. 3 [1]: statistically significant difference
Tumor growth, FIG. 5 ([2]; daily subcutaneous injections 1, 3, 10 and 30 mg/kg, 84 days): tumor growth slowed
Ki (NAALADase; Table III(a)): 0.275 ± 0.08 nM
NAALADase inhibiting activity (in words) (NAALADase): high level of NAALADase inhibiting activity
Ki (NAALADase; text restating Table III(a)): 0.27 nM
Potency relative to previously described inhibitors (NAALADase; times more potent): > 1000 times
LNCAP cell proliferation (incorporation of [3H]thymidine), FIG. 2 ([3]; 7-day treatment, 100 pM to 10 nM): sharp dose-dependent decrease
3H-Thymidine Incorporation (dpm/well) ([3]; 10 pM): 3078 ± 1006 dpm/well
3H-Thymidine Incorporation (dpm/well) ([3]; 100 pM): 2062 ± 595 dpm/well
3H-Thymidine Incorporation (dpm/well) ([3]; 1 nM): 1001 ± 52 dpm/well
3H-Thymidine Incorporation (dpm/well) ([3]; 10 nM): 664 ± 366 dpm/well

Cc1cccc(P(=O)(O)CC(CCC(=O)O)C(=O)O)c1 (stereo not shown)
Ki (NAALADase; Table III(b), read-out: Ki): 190 nM

O=C(O)CC(CP(=O)(O)O)C(=O)O (stereo not shown) [2-(phosphonomethyl)succinic acid, reference compound]
NAALADase inhibiting activity (in words) (NAALADase): much lower NAALADase inhibiting activity

CCCCP(=O)(O)CC(CCC(=O)O)C(=O)O (stereo not shown)
Ki (NAALADase; Table III(b), read-out: Ki): 148 nM

O=C(O)CCC(CP(=O)(O)Cc1ccccc1F)C(=O)O (stereo not shown)
Ki (NAALADase; [4]): 175 nM

O=C(O)CCC(CP(=O)(O)Cc1ccccc1)C(=O)O (stereo not shown) [2-[(benzylhydroxyphosphinyl)methyl]pentanedioic acid]
Mean tumor volume relative to start of treatment (V/Vo) versus control group, FIG. 6 ([2]; daily intra-tumoral injections of 1 μg, 2.5 weeks, p=0.02): statistically significant difference

O=C(O)CCC(CP(=O)(O)CCC(=O)O)C(=O)O (stereo not shown) [2-[[2-carboxyethyl)hydroxyphosphinyl]-methyl]pentanedioic acid)]
NAALADase inhibiting activity (in words) (NAALADase): lower NAALADase inhibiting activity
